SMILES strings stand for the structures.

Assay [1] addresses T1, AGE-BSA (Bos taurus, UniProt P02769).
T1 construct: Bovine serum albumin (fraction V) (BSA); from tissue
Nature of the assay: In-vitro AGE breaking activity by ELISA (16 weeks AGE-BSA incubated with test compound). The format is biochemical, bovine. The note with it: for % Breakage: 37°C, 24 hours. Background: In an ELISA, binding on a coated surface is turned into a signal by an enzyme label.

A short description of assay [2]: Free radical scavenging activity on ABTS radical cation (absorbance at 730nm). The format is biochemical. The procedure:
This method measures the relative ability of free radical scavenging substances to scavenge the ABTS ^.+ i.e. 2,2-Azino-bis-(3-ethyl benzo thiazoline-6-sulfonate) radical cation as compared to a standard amount of standard or free radical scavengers antioxidants. Incubation of ABTS with Peroxidase (metmyoglobin) and hydrogen peroxide results in the production of radical cation ABTS^.+ . This species is blue- green in colour and can be detected at 730nm. Antioxidants or free radical scavengers in the added sample that causes suppression of the color to a degree that is proportional to their concentration.
• A. Phosphate Citrate Buffer (pH 5.0): 48.5ml of 0.1M citric acid with sufficient 0.2M disodium hydrogen phosphate to produce 100 ml. • B. Phosphate Buffer Saline (PBS): Dissolve 40.0g of NaCl, 1.0g of KCI, 1.0g of KH2PO4 and 3.05g of Na2HPO4 in 1 litre milli-Q water. Dilute 200ml of above solution to 1 litre with milli-Q water (pH 7.4-7.6). • C. 3µM stock solution of Peroxidase was prepared in phosphate buffer saline pH 7.4(PBS). • D. 1.08 mM stock solution of Hydrogen peroxide was prepared in phosphate buffer saline pH 7.4 (PBS).
1 tablet (10mg) was dissolved in phosphate citrate buffer (pH 5.0).
5.0ml of ABTS stock solution was diluted with PBS to 20 ml.
320 µg of the enzyme was dissolved in 2.5 ml of PBS.
12µl of Hydrogen Peroxide (30%w/v) was diluted to 100ml with PBS.
0.1mM of stock solution of the drug was prepared which was serially diluted in PBS to get solutions of different concentrations.
To 18ml of ABTS stock solution, 100µl of Horseradish Peroxidase stock solution was added.
As soon as 1.5 ml of hydrogen peroxide solution was added to the above solution, blue-green colour of the ABTS radicals appeared. This solution was incubated at 30°C for 30 min.
980µl of ABTS radical stock solution was added to an eppendorf tube. To it was added 100µl of various PBS solution.
980µl of ABTS radical stock solutions were added to different eppendorf tubes. To it were added 100µl of various concentrations of drug solution.
The absorbance of control and test samples was recorded immediately at 730nm taking PBS as blank.
Calculation: The percent antioxidant activity was calculated according to the formula: % Antioxidant activity = [O.D of test sample/O.D of control*100]-100.

T1 sequence (P02769 25-607): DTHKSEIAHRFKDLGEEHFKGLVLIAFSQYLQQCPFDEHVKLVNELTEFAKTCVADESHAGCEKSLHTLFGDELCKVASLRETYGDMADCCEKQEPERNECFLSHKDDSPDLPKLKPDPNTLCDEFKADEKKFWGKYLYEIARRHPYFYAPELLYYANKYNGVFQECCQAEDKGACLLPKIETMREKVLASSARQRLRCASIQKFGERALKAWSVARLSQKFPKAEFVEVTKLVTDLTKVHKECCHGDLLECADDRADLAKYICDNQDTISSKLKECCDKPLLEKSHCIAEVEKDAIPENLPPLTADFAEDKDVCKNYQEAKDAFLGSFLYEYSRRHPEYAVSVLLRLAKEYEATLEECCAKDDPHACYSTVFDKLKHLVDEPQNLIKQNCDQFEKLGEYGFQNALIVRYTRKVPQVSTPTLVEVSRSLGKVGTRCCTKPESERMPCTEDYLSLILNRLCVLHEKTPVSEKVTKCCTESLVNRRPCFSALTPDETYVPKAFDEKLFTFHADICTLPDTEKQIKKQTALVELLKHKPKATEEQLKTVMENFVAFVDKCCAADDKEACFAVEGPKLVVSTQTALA

Take `O=C(C[n+]1cccc(C(=O)NNC(=O)c2ccc[n+](CC(=O)c3ccccc3)c2)c1)c1ccccc1` [Compound 1, N, N'-bis [3-carbonyl-1-(2-phenyl-2-oxoethyl)-pyridinium] hydrazine dibromide]: the “% Breakage” value in assay [1] (5 mM test compound) is on record as 13%.

With `O=C(NCCOC(=O)c1ccccc1)c1ccc[n+](CC(=O)c2ccc(Cl)cc2Cl)c1.[Br-]` [Compound 8, 1-(2-(2',4'-dichlorophenyl) -2-oxoethyl) -3-(2-(benzoyloxy)ethylamino-carbonyl) pyridinium bromide], the “Relative Free Radical Scavenging Activity(%) on ABTS” value in assay [2] (11.5µM) came out at 40.8%; in assay [2] (23.0µM) it was 53.7%; in assay [2] (46.0µM), 72.6%; in assay [2] (92.5µM), 81.2%; in assay [2] (925µM), 100%.

For the molecule `CC(=O)OCCOC(=O)c1ccc[n+](CC(=O)c2ccccc2)c1.[Br-]` [Compound 16, 1-(2-phenyl-2-oxoethyl) -3-(2-(acetoxy)ethyloxycarbonyl) pyridinium bromide], in assay [1] (10 mM test compound), the “% Breakage” value is reported as 16%.

In the case of `CCOC(=O)C[n+]1cccc(C(=O)OCCOC(=O)c2ccccc2)c1.[Br-]` [Compound 17, 1-(2-ethoxy-2-oxoethyl) -3-(2-(benzoyloxy)ethyloxycarbonyl) pyridinium bromide], in assay [1] (10 mM test compound), the “% Breakage” value was found to be 19%.

Consider `O=C(NCCOC(=O)c1ccccc1)c1cc[n+](CC(=O)c2cccs2)cc1.[Br-]` [Compound 18, 1-(2-thien-2'-yl-2-oxoethyl)-4-(2-(benzoyloxy)ethylaminocarbonyl) pyridinium bromide], for which the “Relative Free Radical Scavenging Activity(%) on ABTS” value in assay [2] (11.5µM) was 41.8%; in assay [2] (23.0µM) it was 59.5%; in assay [2] (46.0µM), 75.2%; in assay [2] (92.5µM), 91.0%; in assay [2] (925µM), 100%.

In the case of `O=C(C[n+]1cccc(C(=O)NCCOC(=O)c2ccccc2)c1)Nc1ccccc1.[Cl-]` [Compound 23, 1-(2-phenylamino-2-oxoethyl)-3-((benzoyloxy)ethylaminocarbonyl) pyridinium chloride], the results for the “% Breakage” value in assay [1] (10 mM test compound) and in assay [1] (25 mM test compound) were 37% and 90%, respectively. Also, the “AGE breaking activity compared to PTB” value in assay [1] (comparison in words based on Table 2) is recorded as “superior”.

Turning to `Cc1ccc(S(=O)(=O)NNC(=O)c2ccc[n+](CC(=O)Nc3ccccc3)c2)cc1.[Cl-]` [Compound 27, 1-(2-phenylamino-2-oxoethyl)-3-((4-methylphenyl)sulfonyl hydrazinocarbonyl) pyridinium chloride], the “Relative Free Radical Scavenging Activity(%) on ABTS” value came to 43.9% in assay [2] (11.5µM); 55.5% in assay [2] (23.0µM); 75.3% in assay [2] (46.0µM); 99.6% in assay [2] (92.5µM); 100% in assay [2] (925µM).

Consider `O=C(C[n+]1cccc(C(=O)NNS(=O)(=O)Cc2ccccc2)c1)c1ccccc1.[Br-]` [Compound 31, 1-(2-phenyl-2-oxoethyl)-3-((phenylmethyl)sulfonyl hydrazinocarbonyl) pyridinium bromide], for which the “Relative Free Radical Scavenging Activity(%) on ABTS” value turned out to be 41.6% in assay [2] (11.5µM); 57.7% in assay [2] (23.0µM); 66.9% in assay [2] (46.0µM); 99.2% in assay [2] (92.5µM); 100% in assay [2] (925µM).

In the case of `O=C(NNC(=O)c1ccc[n+](CC(=O)c2ccco2)c1)c1ccc[n+](CC(=O)c2ccco2)c1` [Compound 32, N, N' - bis [3-carbonyl-1-(2-furan-2'-yl-2-oxoethyl)pyridinium] hydrazine dibromide], the “% Breakage” value in assay [1] (10 mM test compound) came to 14%.

As for `O=C(CCC1CCCCC1)NNC(=O)c1ccc[n+](CC(=O)c2cccs2)c1.[Br-]` [Compound 34, 1-(2-thien-2'-yl-2-oxoethyl)-3-((2-(1-oxo-3-cyclohexyl)-ethyl)-hydrazinocarbonyl)-pyridinium bromide], the “Relative Free Radical Scavenging Activity(%) on ABTS” value in assay [2] (11.5µM) is recorded as 50.3%; in assay [2] (23.0µM), 53.8%; in assay [2] (46.0µM) it was 65.4%; in assay [2] (92.5µM), 80.4%; in assay [2] (925µM), 100%.

Take `O=C1CCCC(CCNNC(=O)c2ccc[n+](CC(=O)Nc3ccccc3)c2)C1.[Br-]` (centres unmarked) [Compound 35, 1-(2-phenylamino-2-oxoethyl)-3-({2-(1-oxo-3-cyclohexyl)-ethyl} -hydrazinocarbonyl}-pyridinium bromide]: the “Relative Free Radical Scavenging Activity(%) on ABTS” value turned out to be 50.5% in assay [2] (11.5µM); 63.4% in assay [2] (23.0µM); 80.9% in assay [2] (46.0µM); 90.6% in assay [2] (92.5µM); 100% in assay [2] (925µM).

As to `O=C(NCCOC(=O)c1ccccc1)c1ccc[n+](CC(=O)c2cccs2)c1.[Br-]` [Compound 36, 1-(2-thien-2'-yl-2-oxoethyl)-3-[2-(benzoyloxy)ethylaminocarbonyl]-pyridinium bromide], the “Relative Free Radical Scavenging Activity(%) on ABTS” value is recorded as 27.6% in assay [2] (11.5µM); 59.2% in assay [2] (23.0µM); 74.2% in assay [2] (46.0µM); 83.9% in assay [2] (92.5µM); 100% in assay [2] (925µM).

For `O=C=Nc1ccc[n+](CC(=O)c2ccc(Cl)cc2Cl)c1.[Br-]` [Compound 82, 3-Carbonylamino-1-(2-(2,4-dichlorophenyl)-2-oxoethyl)-pyridinium bromide], the “Relative Free Radical Scavenging Activity(%) on ABTS” value in assay [2] (11.5µM) came out at 26.0%; in assay [2] (23.0µM), 44.3%; in assay [2] (46.0µM), 62.7%; in assay [2] (92.5µM), 75.5%; in assay [2] (925µM) it was 100%.

With `CCCCNC(=O)c1ccc[n+](CC(=O)c2ccc(Cl)cc2Cl)c1.[Br-]` [Compound 97, 1-(2 - (2, 4 - Dichlorophenyl) - 2-oxoethyl) - 3-(n-butylamino-carbonyl) pyridinium bromide], the “Relative Free Radical Scavenging Activity(%) on ABTS” value is 16.5% in assay [2] (11.5µM); 27% in assay [2] (23.0µM); 37.8% in assay [2] (46.0µM); 44.5% in assay [2] (92.5µM); 97.8% in assay [2] (925µM).

With `O=C(C[n+]1cccc(C(=O)c2ccccc2)c1)c1ccccc1.[Br-]` [Compound 98, 1-(2-Phenyl-2-oxoethyl)-3-(1-phenyl-1-oxomethyl) pyridinium bromide], the “Relative Free Radical Scavenging Activity(%) on ABTS” value was 7.1% in assay [2] (11.5µM); 26.9% in assay [2] (23.0µM); 51.1% in assay [2] (46.0µM); 78.6% in assay [2] (92.5µM); 99.1% in assay [2] (925µM).

On to `NC(=O)c1cccnc1` [Niacinamide, reference compound], for which the “Relative Free Radical Scavenging Activity(%) on ABTS” value is recorded as 0.0% in assay [2] (11.5µM); 2.2% in assay [2] (23.0µM); 3.8% in assay [2] (46.0µM); 3.8% in assay [2] (92.5µM); 9.2% in assay [2] (925µM).

(Values after patent publication EP1304101A1, “Composition and method for use of pyridinium derivatives in cosmetic and therapeutic applications” (Torrent Pharmaceuticals Ltd, priority 2001, dated 2003).)
